pEC50, pIC50: −log10 of the molar value.

Data set [1] can be described thus: Liver Microsome Stability Assay, monkey. As to conditions: monkey liver microsomes 1.0 mg/mL, 1.0 uM compound, 37° C., 1 mM NADPH. The data set is classed as in vitro ADME. An outline of the steps: (§1)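 Compound at 1.0 uM (0.4% DMSO) was incubated at 37° C with 1.0 mg/mL liver microsomes in 0.1 M potassium phosphate, with or without 1 mM NADPH. Samples were quenched at 0 and 30 minutes.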

Another data set concerns CD47(ss + 10)Gluc. Description: Dox-Induced CD47-ss-Gluc Assay. The class given is cell-based. The settings on record: Flp-In 293 T-REx cells, 24 hours with doxycycline; Table 1; read-out: 24 hr Dox Inducible CD47(ss + 10)Gluc 293FRT/TO: Mean IC50.
In data set [2] the test system is multiple myeloma cell line U266B1. Description: U266 Cell Viability Assay. The class given is cell-based. The settings on record: Homo sapiens, U-266; U266B1 cells, 48 hours, Celltiter-Glo; read-out: 48 hr U266 Viability Celltiter-Glo: Mean EC50. In short, it runs like this: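 Viability is measured as luciferase signal from CellTiter-Glo following a 48-hour incubation with compound at 37° C. under 5% CO2. Where structures lack drawn stereochemistry, values refer to stereoisomer mixtures.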
(In ATP-based viability assays light output follows the ATP content of the culture.)

Data set [3] is described as follows: Liver Microsome Stability Assay, mouse. The data set is classed as in vitro ADME. The settings on record: mouse liver microsomes 1.0 mg/mL, 1.0 uM compound, 37° C., 1 mM NADPH. An outline of the steps:
as §1

The subject of data set [4] is multiple myeloma cell line NCI-H929. Description: H929 Cell Viability Assay. The class given is cell-based, human. The settings on record: Homo sapiens; NCI-H929 cells, 48 hours, Celltiter-Glo; read-out: 48 hr H929 Viability Celltiter-Glo: Mean EC50. In short, it runs like this:
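Viability is scored by CellTiter-Glo luminescence following a 48-hour treatment at 37° C. Data for structures shown without stereochemistry refer to stereoisomer mixtures.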

Data set [5] can be described thus: Liver Microsome Stability Assay, human. The settings on record: human liver microsomes 1.0 mg/mL, 1.0 uM compound, 37° C., 1 mM NADPH. The class given is in vitro ADME. In short, it runs like this:
as §1

Data set [6] deals with PD1-ss+10aa/Gaussia Luciferase. Description: Dox-Induced PD1-ss-Gluc Assay. The class given is cell-based. The settings on record: Flp-In 293 T-REx cells, 24 hours with doxycycline; Table 1; read-out: 24 hr Dox Inducible PD1ssGluc 293FRT/TO: Mean IC50. In short, it runs like this: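 Doxycycline-induced expression of a PD1-ss+10aa/Gaussia luciferase reporter is measured in stable Flp-In 293 T-REx cells. Compound dilutions containing doxycycline are added one day after plating and incubated at 37 °C, 5% CO2. Values for unassigned stereocentres refer to stereoisomer mixtures.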

Data set [7] deals with IL6R-ss+10aa/Gaussia Luciferase. Description: Dox-induced IL-6R-ss-Gluc Assay. The data set is classed as cell-based. As to conditions: Table 1; for pIC50: Flp-In 293 T-REx cells, 24 hours with doxycycline, read-out: 24hr Dox Inducible IL6R(ss + 10)Gluc 293FRT/TO: Mean IC50; for 24hr Dox Inducible IL6R(ss + 10)Gluc 293FRT/TO: IL6R/PD1: ratio of IC50s IL6R/PD1. An outline of the steps:
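Flp-In 293 T-REx cells stably carrying a doxycycline-inducible IL6R signal sequence+10 aa fused to Gaussia luciferase. Cells plated the day before; compound dilutions added in DMSO/media containing doxycycline and incubated at 37 °C, 5% CO2.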

In data set [8] the test system is IL-2-FL/Gaussia Luciferase. The data set is described as follows: Dox Inducible IL2-FL-Gluc Assay. The data set is classed as cell-based. The settings on record: Table 1; for pIC50: Flp-In 293 T-REx cells, 24 hours with doxycycline, read-out: 24 hr Dox Inducible IL2FLGluc 293FRT/TO: Mean IC50; for 24 hr Dox Inducible IL2FLGluc 293FRT/TO: IL2/PD1: ratio of IC50s IL2/PD1. An outline of the steps: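 Doxycycline induces an IL-2(1-153)–Gaussia luciferase fusion in a stable Flp-In 293 T-REx line. Compound exposure runs alongside induction at 37° C.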

Data set [9] can be described thus: Liver Microsome Stability Assay, rat. The settings on record: rat liver microsomes 1.0 mg/mL, 1.0 uM compound, 37° C., 1 mM NADPH. The data set is classed as in vitro ADME. In short, it runs like this: as §1
A general note: Liver microsomes are a subcellular fraction often used to study metabolism.

The term pEC50 denotes the negative decadic logarithm of the EC50, by convention in mol/L. With `N[C@H]1CC[C@H](/C=C/c2csc(NC(=O)c3cccn3Cc3ccncc3)n2)CC1` [Compound B18, N-(4-((E)-2-((1r,4r)-4-aminocyclohexyl)vinyl)thiazol-2-yl)-1-(pyridin-4-ylmethyl)-1H-pyrrole-2-carboxamide], the “Liver Microsome Stability (Multiple Species): Monkey - % Remaining after 30 min w/ NADPH (%)” value in data set [1] was less than 1%. For the same compound, the pIC50 in the data set with CD47(ss + 10)Gluc is less than 4.60; in [6], 4.95; in data set [7], 5.00; in data set [8], less than 4.60. For the same compound, the pEC50 in data set [2] and in [4] was less than 4.60 each time. Besides, the “Liver Microsome Stability (Multiple Species): Mouse - % Remaining after 30 min w/ NADPH (%)” value in data set [3] is on record as 45%. In addition, in [5], the “Liver Microsome Stability (Multiple Species): Human - % Remaining after 30 min w/ NADPH (%)” value is on record as less than 1%. Further, the “24hr Dox Inducible IL6R(ss + 10)Gluc 293FRT/TO: IL6R/PD1” value in data set [7] came out at 1. The “24 hr Dox Inducible IL2FLGluc 293FRT/TO: IL2/PD1” value in data set [8] is reported as greater than 2.2. Besides, the “Liver Microsome Stability (Multiple Species): Rat - % Remaining after 30 min w/ NADPH (%)” value in data set [9] was found to be 6%.
With `N#Cc1ocnc1/C=C/c1csc(NC(=O)c2cccn2Cc2ccnc(F)c2)n1` [Compound B19, (E)-N-(4-(2-(5-cyanooxazol-4-yl)vinyl)thiazol-2-yl)-1-((2-fluoropyridin-4-yl)methyl)-1H-pyrrole-2-carboxamide], the “Liver Microsome Stability (Multiple Species): Monkey - % Remaining after 30 min w/ NADPH (%)” value in data set [1] came to 6%. Besides, the pIC50 with CD47(ss + 10)Gluc is less than 4.60; in [6] it was 6.50; in [7], less than 4.60; in data set [8] it was less than 4.60. For the same compound, the negative logarithm of the EC50 (pEC50) in [2] and in data set [4] was less than 4.60 in each case. Further, the “Liver Microsome Stability (Multiple Species): Mouse - % Remaining after 30 min w/ NADPH (%)” value in data set [3] came to 22%. Besides, the “Liver Microsome Stability (Multiple Species): Human - % Remaining after 30 min w/ NADPH (%)” value in data set [5] is 7%. The “24hr Dox Inducible IL6R(ss + 10)Gluc 293FRT/TO: IL6R/PD1” value in data set [7] is recorded as greater than 79. The “24 hr Dox Inducible IL2FLGluc 293FRT/TO: IL2/PD1” value in [8] was greater than 79. In addition, the “Liver Microsome Stability (Multiple Species): Rat - % Remaining after 30 min w/ NADPH (%)” value in data set [9] was 1%.
As to `CC(C)n1cnc(/C=C/c2csc(NC(=O)c3cccn3Cc3ccnc(F)c3)n2)c1C#N` [Compound B20, (E)-N-(4-(2-(5-cyano-1-isopropyl-1H-imidazol-4-yl)vinyl)thiazol-2-yl)-1-((2-fluoropyridin-4-yl)methyl)-1H-pyrrole-2-carboxamide], in data set [1], the “Liver Microsome Stability (Multiple Species): Monkey - % Remaining after 30 min w/ NADPH (%)” value was less than 1%. Also, the pIC50 was 5.82 in the data set with CD47(ss + 10)Gluc, 8.05 in data set [6], 5.88 in data set [7] and 5.81 in [8]. Besides, the pEC50 was 4.80 in data set [2] and 5.08 in [4]. For the same compound, the “Liver Microsome Stability (Multiple Species): Mouse - % Remaining after 30 min w/ NADPH (%)” value in data set [3] came to 5%. The “Liver Microsome Stability (Multiple Species): Human - % Remaining after 30 min w/ NADPH (%)” value in data set [5] is given as less than 1%. Besides, the “24hr Dox Inducible IL6R(ss + 10)Gluc 293FRT/TO: IL6R/PD1” value in [7] stood at 146. For the same compound, the “24 hr Dox Inducible IL2FLGluc 293FRT/TO: IL2/PD1” value in data set [8] is 170.0. For the same compound, the “Liver Microsome Stability (Multiple Species): Rat - % Remaining after 30 min w/ NADPH (%)” value in data set [9] came out at 33%.
As for `[2H]c1nc(/C=C/c2csc(NC(=O)c3cccn3Cc3ccnc(F)c3)n2)cn1C(C)C` [Compound B21], in [1], the “Liver Microsome Stability (Multiple Species): Monkey - % Remaining after 30 min w/ NADPH (%)” value is listed as less than 1%. Further, the pIC50 was less than 4.60 in the data set with CD47(ss + 10)Gluc, 7.19 in data set [6], less than 4.60 in data set [7] and less than 4.60 in [8]. Moreover, the pEC50 in data set [2] was 4.62; in [4] it was 4.76. The “Liver Microsome Stability (Multiple Species): Mouse - % Remaining after 30 min w/ NADPH (%)” value in data set [3] was determined as 11%. Besides, the “Liver Microsome Stability (Multiple Species): Human - % Remaining after 30 min w/ NADPH (%)” value in data set [5] is listed as less than 1%. For the same compound, the “24hr Dox Inducible IL6R(ss + 10)Gluc 293FRT/TO: IL6R/PD1” value in data set [7] is on record as greater than 385. For the same compound, the “24 hr Dox Inducible IL2FLGluc 293FRT/TO: IL2/PD1” value in data set [8] is reported as greater than 380. Also, the “Liver Microsome Stability (Multiple Species): Rat - % Remaining after 30 min w/ NADPH (%)” value in data set [9] came to 20%.
On to `O=C(Nc1nc(/C=C/C2CCOC2)cs1)c1cccn1Cc1ccnc(F)c1` (stereo not shown) [Compound B22, (E)-1-((2-fluoropyridin-4-yl)methyl)-N-(4-(2-(tetrahydrofuran-3-yl)vinyl)thiazol-2-yl)-1H-pyrrole-2-carboxamide], for which, in data set [1], the “Liver Microsome Stability (Multiple Species): Monkey - % Remaining after 30 min w/ NADPH (%)” value was less than 1%. Moreover, the pIC50 (with CD47(ss + 10)Gluc; in data set [6]; in [7]; in data set [8]) was less than 4.60 throughout. For the same compound, the pEC50 in [2] and in data set [4] was less than 4.60 throughout. Further, the “Liver Microsome Stability (Multiple Species): Mouse - % Remaining after 30 min w/ NADPH (%)” value in data set [3] worked out at 41%. In addition, in data set [5], the “Liver Microsome Stability (Multiple Species): Human - % Remaining after 30 min w/ NADPH (%)” value came out at 9%. Also, in data set [9], the “Liver Microsome Stability (Multiple Species): Rat - % Remaining after 30 min w/ NADPH (%)” value turned out to be 1%.
With `O=C(Nc1nc(/C=C/c2ccc3occc3c2)cs1)c1cccn1Cc1ccnc(F)c1` [Compound B27, (E)-N-(4-(2-(benzofuran-5-yl)vinyl)thiazol-2-yl)-1-((2-fluoropyridin-4-yl)methyl)-1H-pyrrole-2-carboxamide], the “Liver Microsome Stability (Multiple Species): Monkey - % Remaining after 30 min w/ NADPH (%)” value in data set [1] amounted to 8%. Also, the pIC50 in the data set with CD47(ss + 10)Gluc was 5.99; in data set [6], 6.84; in data set [7] it was 6.05; in data set [8], 5.98. Also, the pEC50 in [2] and in data set [4] was less than 4.60 in each case. Further, the “Liver Microsome Stability (Multiple Species): Mouse - % Remaining after 30 min w/ NADPH (%)” value in data set [3] is 40%. For the same compound, the “Liver Microsome Stability (Multiple Species): Human - % Remaining after 30 min w/ NADPH (%)” value in data set [5] came out at 27%. Moreover, the “24hr Dox Inducible IL6R(ss + 10)Gluc 293FRT/TO: IL6R/PD1” value in data set [7] was found to be 6. Further, the “24 hr Dox Inducible IL2FLGluc 293FRT/TO: IL2/PD1” value in data set [8] is recorded as 5.2. The “Liver Microsome Stability (Multiple Species): Rat - % Remaining after 30 min w/ NADPH (%)” value in data set [9] stood at 3%.
`O=C(Nc1nc(/C=C/c2cccc(F)c2)cs1)c1cccn1Cc1ccnc(F)c1` [Compound B28, (E)-1-((2-fluoropyridin-4-yl)methyl)-N-(4-(3-fluorostyryl)thiazol-2-yl)-1H-pyrrole-2-carboxamide]: the “Liver Microsome Stability (Multiple Species): Monkey - % Remaining after 30 min w/ NADPH (%)” value in [1] came to 22%. Besides, the pIC50 in the data set with CD47(ss + 10)Gluc is 6.00; in data set [6] it was 6.76; in [7], 5.92; in data set [8], 5.96. Besides, the values for the pEC50 in [2] and in data set [4] were less than 4.60 and 4.82, respectively. The “Liver Microsome Stability (Multiple Species): Mouse - % Remaining after 30 min w/ NADPH (%)” value in [3] is reported as 72%. Besides, the “Liver Microsome Stability (Multiple Species): Human - % Remaining after 30 min w/ NADPH (%)” value in data set [5] is 70%. Also, in [7], the “24hr Dox Inducible IL6R(ss + 10)Gluc 293FRT/TO: IL6R/PD1” value was determined as 7. Besides, the “24 hr Dox Inducible IL2FLGluc 293FRT/TO: IL2/PD1” value in data set [8] is on record as 6.1. The “Liver Microsome Stability (Multiple Species): Rat - % Remaining after 30 min w/ NADPH (%)” value in data set [9] amounted to 39%.

(Values after patent publication US20250171434A1, “SEC61 INHIBITORS AND USE THEREOF” (KEZAR LIFE SCIENCES, INC., priority 2022, published 2025).)
